# Data published in patent US11844845B2, “Cell penetrating peptide, conjugate comprising same, and composition comprising conjugate” (GEMVAX & KAEL CO., LTD., priority 2012, dated 2023).
# Test system: HeLa cell
# Assay: Cell penetration of pep(CPP)-FITC conjugate in HeLa cell line, flow cytometry (FACS)
# Type: cell-based, Homo sapiens
# Details: HeLa cells, 20 uM FITC-fused peptide, 37° C. for an hour, control = FITC only
# Protocol: Homo sapiens cervix adenocarcinoma cell line as HeLa cell lines were purchased from ATCC (American Type Cell Culture). The cells were cultured in MEM supplemented with 10% fetal bovine serum (Invitrogen, USA), Earle's salts, non-essential amino acids, sodium pyruvate and 100 μg/ml penicillin and 10 units/ml streptomycin and cultured at 37° C., 5% CO2 incubator.
# Flow cytometry and Confocal microscope analysis were performed to compare the between degree of cellular uptake of the cells were treated with SEQ ID NO: 2 to SEQ ID NO: 178, pep (CPP) and control.
# The cell line was divided in a 6-well plate and cultured in a medium containing 10% fetal bovine serum (Invitrogen, USA), 100 μg/ml penicillin, 100 units/ml streptomycin at 37° C. 5% CO2 incubator for 12 hours. After washing the cell line with PBS, starvation was induced in a Minimum Essential Medium for an hour. 20 uM of each carrier peptide was treated and cultured at 37° C. for an hour. After repeating the step of washing the cells with PBS for three times, Trypsin-EDTA was treated form 10 mins at 37° C. to separate the carrier peptide on the outside of the cell. cells were collected with refrigerated PBS and centrifugation was performed to repeat the step of washing the cells for three times. After then, the cells were suspended in 0.5 ml of PBS containing 4% Paraformaldehyde and fluorescence of the cells was analyzed using FACS Calibur (Becton Dickinson). The cellular uptake aspect of control and various peptides combined with FITC was compared and analyzed by MFI (Mean Fluorescence Intensity).
# Analysis results shown in FIGS. 2 to 29 are given in detail in Table 7 below.
row,Substance,"cellular uptake, MFI (Mean Fluorescence Intensity)"
1,LTSRL (listed as Homo sapiens) [Pep-RIA-157],11.42 ± 0.32
2,RPALLTSRLRFI (listed as Homo sapiens) [Pep-RIA-105],19.4 ± 0.59
3,EARPAL (listed as Homo sapiens) [Pep-RIA-87],9.6 ± 1.76
4,ALLTS (listed as Homo sapiens) [Pep-RIA-143],13.24 ± 0.37
5,RPALLTSRLRFIP (listed as Homo sapiens) [Pep-RIA-121],20.72 ± 0.33
6,ALLTSRLRFIP (listed as Homo sapiens) [Pep-RIA-139],34.19 ± 1.43
7,LTSRLR (listed as Homo sapiens) [Pep-RIA-156],12.21 ± 0.24
8,IPK (listed as Homo sapiens) [Pep-RIA-103],10.44 ± 0.18
9,EARPALLTSRLRF (listed as Homo sapiens) [Pep-RIA-80],14.7 ± 0.79
